From BindingDB's records for doi:10.7270/Q2T72FVT (University of Pittsburgh, 2007) come the findings set out here.

This experiment deals with Serine/threonine-protein kinase PLK1 (Homo sapiens, UniProt P53350). The experiment is described as follows: potency against Plk1 PBD phosphopeptide binding – biochemical, fluorescence polarization, dose response (AID 877).
Serine/threonine-protein kinase PLK1, sequence (P53350 whole entry): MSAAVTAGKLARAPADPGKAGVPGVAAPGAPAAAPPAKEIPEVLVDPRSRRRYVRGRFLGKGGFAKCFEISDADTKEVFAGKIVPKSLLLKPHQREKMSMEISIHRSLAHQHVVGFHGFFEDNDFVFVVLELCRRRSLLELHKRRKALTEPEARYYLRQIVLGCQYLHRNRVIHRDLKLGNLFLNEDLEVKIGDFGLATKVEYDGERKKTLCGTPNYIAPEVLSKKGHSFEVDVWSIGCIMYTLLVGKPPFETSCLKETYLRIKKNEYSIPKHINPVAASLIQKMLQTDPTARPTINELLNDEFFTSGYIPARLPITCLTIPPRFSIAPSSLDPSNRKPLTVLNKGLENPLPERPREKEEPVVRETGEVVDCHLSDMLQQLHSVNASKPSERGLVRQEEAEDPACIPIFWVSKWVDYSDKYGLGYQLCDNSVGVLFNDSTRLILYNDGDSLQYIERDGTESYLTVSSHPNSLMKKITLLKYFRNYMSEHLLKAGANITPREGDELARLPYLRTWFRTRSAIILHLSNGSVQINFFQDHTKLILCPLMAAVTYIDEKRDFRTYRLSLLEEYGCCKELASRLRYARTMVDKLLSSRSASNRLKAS
In turn, `Cc1ccc2cc(C(c3nnnn3C3CCCC3)N3CCN(c4ccccc4)CC3)c(=O)[nH]c2c1` (stereo not drawn) [3-[(1-cyclopentyltetrazol-5-yl)-(4-phenylpiperazin-1-yl)methyl]-7-methyl-1H-quinolin-2-one] showed an IC50 above 50 µM.

With `CC1CCCC(NC2CCCCNC2=O)C1` (stereo not drawn) [3-[(3-methylcyclohexyl)amino]-2-azepanone], the IC50 is above 50 µM.

The compound `Cc1nc2cccc(C)n2c(=O)c1Cl` [3-chloranyl-2,6-dimethyl-pyrido[1,2-a]pyrimidin-4-one] came in with an IC50 above 50 µM.

Regarding `CCn1cnc2sc(C(=O)N3CCN(c4ccc(OC)cc4)CC3)c(C)c2c1=O` [3-ethyl-6-[4-(4-methoxyphenyl)piperazin-1-yl]carbonyl-5-methyl-thieno[2,3-d]pyrimidin-4-one], the IC50 is above 50 µM.

Consider `O=C1Nc2ccc([N+](=O)[O-])cc2C1(O)N1CCCCC1` (stereo not drawn) [3-hydroxy-5-nitro-3-(1-piperidinyl)-1,3-dihydro-2H-indol-2-one], for which the IC50 is above 50 µM.

With `CC1CN(C2CC(C)(C)NC(C)(C)C2)CCC1=O` (stereo not drawn) [3-methyl-1-(2,2,6,6-tetramethyl-4-piperidinyl)-4-piperidinone], the IC50 was above 50 µM.

`O=C(NC(NC(=S)Nc1ccc(Cl)cc1Cl)C(Cl)(Cl)Cl)c1cccc([N+](=O)[O-])c1` (stereo not drawn) [3-nitro-N-[2,2,2-trichloro-1-({[(2,4-dichlorophenyl)amino]carbonothioyl}amino)ethyl]benzamide] gave an IC50 above 50 µM.

In turn, `Cc1cccc(C)c1NC1=NC(=S)N(c2ccccc2)C12CCOC(C)(C)C2` (stereo not drawn) [4-(2,6-dimethylanilino)-7,7-dimethyl-1-phenyl-8-oxa-1,3-diazaspiro[4.5]dec-3-ene-2-thione] came in with an IC50 above 50 µM.

`Cc1ccccc1Oc1ncnc2oc(-c3ccccc3)cc12` [4-(2-methylphenoxy)-6-phenyl-furo[2,3-d]pyrimidine]: the half-maximal inhibitory concentration (IC50) is above 50 µM.

`Cc1ccc(C(=O)c2c[nH]c(C(=O)NCCCN3CCOCC3)c2)cc1` [4-(4-methylbenzoyl)-N-(3-morpholin-4-ylpropyl)-1H-pyrrole-2-carboxamide]: the IC50 was above 50 µM.

As for `CN(C)c1ccc(C(=O)Nc2nc3c(s2)CCCC3)cc1` [4-(dimethylamino)-N-(4,5,6,7-tetrahydro-1,3-benzothiazol-2-yl)benzamide], the IC50 was above 50 µM.

In the case of `O=C(CN1C(=O)COc2ccccc21)NCc1ccc(C(=O)O)cc1` [4-[[2-(3-oxidanylidene-1,4-benzoxazin-4-yl)ethanoylamino]methyl]benzoic acid], the half-inhibitory concentration (IC50) is above 50 µM.

For the compound `CCCc1nc2sc3c(c2c(=O)n1NC(=O)CCC(=O)O)CCCC3` [4-keto-4-[(4-keto-2-propyl-5,6,7,8-tetrahydrobenzothiopheno[2,3-d]pyrimidin-3-yl)amino]butyric acid], the IC50 is above 50 µM.

Regarding `Cc1ccc(C(=O)Nc2cnc3sc(C)nn3c2=O)cc1` [4-methyl-N-(2-methyl-5-oxidanylidene-[1,3,4]thiadiazolo[3,2-a]pyrimidin-6-yl)benzamide], the IC50 was above 50 µM.

`CC1(C)CC(=O)C=C(NCc2ccncc2)C1` [5,5-dimethyl-3-(4-pyridylmethylamino)cyclohex-2-en-1-one] returned an IC50 above 50 µM.

For the compound `CC(C)(C)NC(=O)CC(CC(=O)O)c1ccccc1` (stereo not drawn) [5-(tert-butylamino)-5-keto-3-phenyl-valeric acid], the IC50 is above 50 µM.

Regarding `C=CCn1c2ccccc2c2nnc(SCc3ccc4nonc4c3)nc21` [5-[(5-prop-2-enyl-[1,2,4]triazino[5,6-b]indol-3-yl)sulfanylmethyl]-2,1,3-benzoxadiazole], the IC50 was above 50 µM.

For the compound `O=C(CNS(=O)(=O)c1ccc(Br)s1)N1CCCC1` [5-bromanyl-N-(2-oxidanylidene-2-pyrrolidin-1-yl-ethyl)thiophene-2-sulfonamide], the IC50 was above 50 µM.

In turn, `Cc1ccc(NC(=O)C2CC=CCC2C(=O)N2CCCCC2)cc1` (stereo not drawn) [6-(Piperidine-1-carbonyl)-cyclohex-3-enecarboxylic acid p-tolylamide] returned an IC50 above 50 µM.

As to `COc1ccc2c3c(cccc13)NN=C2C` [6-Methoxy-3-methyl-1H-benzo[de]cinnoline], the IC50 is above 50 µM.

Consider `Cc1ccc(Cl)cc1N1CCN(S(=O)(=O)c2ccc3c(c2)oc(=O)n3C)CC1` [6-[4-(5-chloranyl-2-methyl-phenyl)piperazin-1-yl]sulfonyl-3-methyl-1,3-benzoxazol-2-one], for which the IC50 was above 50 µM.

In turn, `CC(C)Nc1nnc(SCC(=O)c2c(N)n(Cc3ccccc3)c(=O)n(C)c2=O)s1` [6-amino-1-benzyl-3-methyl-5-[2-[[5-(propan-2-ylamino)-1,3,4-thiadiazol-2-yl]sulfanyl]acetyl]pyrimidine-2,4-dione] had an IC50 above 50 µM.

Compound `O=C1CCN2C=Nc3cccc4ccc1c2c34` [7,8-dihydro-9H-pyrido[1,2,3-cd]perimidin-9-one] showed an IC50 of 25.1 µM.

For `CCOC(=O)c1c2c(n(C)c1C)C(=O)C(=O)c1ccc(Br)cc1-2` [8-bromo-2,3-dimethyl-4,5-dioxo-1-benzo[e]indolecarboxylic acid ethyl ester], the IC50 turned out to be 10.4 µM.

`Oc1ccc2ccc3cccc[n+]3c2c1` [9-benzo[c]quinolizin-11-iumol;iodide] showed an IC50 of 8.73 µM.

Turning to `COc1ccc(N(C)C2=NS(=O)(=O)c3ccccc32)cc1` [(1,1-Dioxo-1H-1lambda*6*-benzo[d]isothiazol-3-yl)-(4-methoxy-phenyl)-methyl-amine], the IC50 was above 50 µM.

In turn, `CC1Cc2ccccc2N1C(=O)c1ccc2c(c1)nnn2C` (stereo not drawn) [(1-methyl-5-benzotriazolyl)-(2-methyl-2,3-dihydroindol-1-yl)methanone] displayed an IC50 above 50 µM.

For `COc1cccc(OC)c1C(=O)N1CCN(c2ccccn2)CC1` [(2,6-dimethoxyphenyl)-(4-pyridin-2-ylpiperazin-1-yl)methanone], the IC50 was above 50 µM.

Regarding `O=[N+]([O-])c1ccc(N2CCNCC2)cc1NCC1CCCO1` (stereo not drawn) [(2-nitro-5-piperazino-phenyl)-(tetrahydrofurfuryl)amine], the half-inhibitory concentration (IC50) was above 50 µM.

`CCOC(=O)Cc1csc(NC(=O)CSc2nnc(-c3ccc(F)cc3)o2)n1` [(2-{2-[5-(4-Fluoro-phenyl)-[1,3,4]oxadiazol-2-ylsulfanyl]-acetylamino}-thiazol-4-yl)-acetic acid ethyl ester] gave an IC50 above 50 µM.

Compound `CCc1noc(C)c1C(=O)N1CCOCC1` [(3-ethyl-5-methyl-1,2-oxazol-4-yl)-morpholin-4-yl-methanone] registered an IC50 above 50 µM.

On to `CC1Cn2c(nnc2-c2cc3ccccc3cc2O)S1` (stereo not drawn) [(3E)-3-(6-methyl-5,6-dihydro-2H-[1,3]thiazolo[2,3-c][1,2,4]triazol-3-ylidene)naphthalen-2-one], for which the IC50 is above 50 µM.

In turn, `COc1ccc2c(c1OC)C(=O)OC2CC(=O)O` (stereo not drawn) [(4,5-dimethoxy-3-oxo-1,3-dihydro-2-benzofuran-1-yl)acetic acid] showed an IC50 above 50 µM.

In the case of `Nc1cc2nsnc2cc1Br` [(6-bromopiazthiol-5-yl)amine], the IC50 was 40.8 µM.

Consider `OCC(CO)(CO)N=Cc1cc(Br)ccc1O` [(6E)-4-bromanyl-6-[[[2-(hydroxymethyl)-1,3-bis(oxidanyl)propan-2-yl]amino]methylidene]cyclohexa-2,4-dien-1-one], for which the IC50 is above 50 µM.

In the case of `C/C(=C\C(=O)Nc1cc(C)on1)c1ccccc1` [(E)-N-(5-methyl-1,2-oxazol-3-yl)-3-phenyl-but-2-enamide], the half-inhibitory concentration (IC50) is above 50 µM.

Turning to `CCC(=O)N1CCN(c2ccc(NC(=O)c3ccc4c(c3)OCO4)cc2)CC1` [Benzo[1,3]dioxole-5-carboxylic acid [4-(4-propionyl-piperazin-1-yl)-phenyl]-amide], the IC50 was above 50 µM.

`O=C(NC1(C(F)(F)F)NC(=O)N(CC2CCCCC2)C1=O)c1ccco1` (stereo not drawn) [MLS000040678] registered an IC50 above 50 µM.

The compound `CCn1ccc(C(=O)Nc2ccc(N(C)C(C)=O)cc2)n1` [MLS000043435] yielded an IC50 above 50 µM.

Take `Cc1ccccc1NS(=O)(=O)c1cc(C(=O)NCc2ccco2)ccc1C` [MLS000052108]: the IC50 is above 50 µM.

`c1ccc(NCc2nnc3n2CCCCC3)cc1` [MLS000057041]: the IC50 was above 50 µM.

`CCc1nc2cc(Cl)c(Cl)cc2[nH]1` [MLS000064722] displayed an IC50 above 50 µM.

With `COc1ccc(C(C)C)cc1S(=O)(=O)Nc1ccc(Cl)cn1` [MLS000071127], the half-maximal inhibitory concentration (IC50) was above 50 µM.

In turn, `O=C1C(=C2C(=O)c3ccccc3C2=O)Nc2ccccc21` [MLS000071738] displayed an IC50 above 50 µM.

`CCC(=O)Nc1ccc(-c2nnc(SCC(=O)Nc3nccs3)n2C)cc1` [MLS000076456] gave an IC50 above 50 µM.

`CC(C)OCCCNC(=O)c1ccc(NC(=O)C2CCCO2)cc1` (stereo not drawn) [MLS000086701] returned an IC50 above 50 µM.

`CCOCCCNC(=O)CCCOc1ccccc1` [MLS000088375] had an IC50 above 50 µM.

Consider `CC(C)=CC(=O)NCCc1ccccc1` [MLS000089152], for which the IC50 was above 50 µM.

`O=C(COc1ccccc1)Nc1ccc(S(=O)(=O)N2CCOCC2)cc1` [MLS000108227] came in with an IC50 above 50 µM.

In turn, `CCC(C)c1ccc(NC(=O)C2CC2)cc1` (stereo not drawn) [MLS000110184] returned an IC50 above 50 µM.

In the case of `O=C(Nc1nc2ccccc2s1)c1cc2c(s1)-c1ccccc1OC2` [MLS000522634], the IC50 is above 50 µM.

`Cn1cc(SCC(=O)Nc2ccc3c(c2)OCCO3)c2ccccc21` [MLS000529783] displayed an IC50 above 50 µM.

In turn, `CCC(=O)Nc1ccccc1C(=O)NC1CCCCC1` [MLS000538265] gave an IC50 above 50 µM.

For `Cc1[nH]n2c(=O)cc(-c3ccc([N+](=O)[O-])cc3)nc2c1-c1ccccc1` [MLS000547439], the IC50 was above 50 µM.

`CCOc1ccccc1N1CCN(C2=C(NS(=O)(=O)c3cccs3)C(=O)c3ccccc3C2=O)CC1` [MLS000551587] had a half-inhibitory concentration (IC50) above 50 µM.

Consider `O=C(NCCc1ccccc1)/C(=C\c1ccc([N+](=O)[O-])cc1)NC(=O)c1ccccc1` [MLS000575866], for which the IC50 was above 50 µM.

The compound `O=C(NC1(O)C(=O)c2ccccc2C1=O)c1ccccc1` [N-(2-hydroxy-1,3-dioxo-2-indenyl)benzamide] gave an IC50 above 50 µM.

For `CC(=O)N(N=C1Sc2ccccc2C1=O)c1ccccc1C` [N-(2-methylphenyl)-N-[(3-oxo-1-benzothiophen-2-ylidene)amino]acetamide], the IC50 amounted to 37.3 µM.

A word on the IC50: it is the point on the concentration scale where inhibition reaches its midpoint. A low value points to higher potency.
